pIC50: −log10 of the molar value.
Columns and labels:
[1] = system: HL-60; test: Cytotoxicity against human HL60 cells by MTT assay; type: functional, cell-based
[2] = system: HSC-2; test: Cytotoxicity against human HSC2 cells by MTT assay; type: functional, cell-based

Structure (SMILES) | pIC50 [1] | pIC50 [2]
C[C@@H]1O[C@@H](O[C@H]2[C@H](O[C@H]3CC[C@@]4(C)C(=CC[C@H]5[C@@H]6C[C@@H]7O[C@@]8(OC[C@H](C)[C@@H](O)[C@@H]8O)[C@@H](C)[C@@H]7[C@@]6(C)CC[C@@H]54)C3)O[C@H](CO)[C@@H](O)[C@@H]2O)[C@H](O)[C@H](O)[C@H]1O | < 3.70 | < 3.70
C[C@H]1CO[C@@]2(O[C@H]3C[C@H]4[C@@H]5CC=C6C[C@@H](O[C@@H]7O[C@H](CO)[C@@H](O)[C@H](O)[C@H]7O[C@@H]7O[C@@H](C)[C@H](O)[C@@H](O)[C@H]7O)CC[C@]6(C)[C@H]5C[C@H](O)[C@]4(C)[C@@]3(O)[C@@H]2C)[C@@H](O)C1 | < 3.70 | < 3.70
C[C@H]1CO[C@@]2(O[C@H]3C[C@@]4(O)[C@@H]5CC=C6C[C@@H](O)CC[C@]6(C)[C@H]5CC[C@]4(C)[C@@]3(O)[C@@H]2C)[C@@H](O)C1 | < 3.70 | < 3.70
C[C@H]1CO[C@@]2(O[C@H]3C[C@@]4(O)[C@@H]5CC=C6C[C@@H](O[C@@H]7O[C@H](CO)[C@@H](O)[C@H](O)[C@H]7O[C@@H]7O[C@@H](C)[C@H](O)[C@@H](O)[C@H]7O)CC[C@]6(C)[C@H]5CC[C@]4(C)[C@@]3(O)[C@@H]2C)[C@@H](O)C1 | < 3.70 | < 3.70
C[C@H]1CO[C@@]2(O[C@H]3C[C@H]4[C@@H]5CC=C6C[C@@H](O)CC[C@]6(C)[C@H]5C[C@H](O)[C@]4(C)[C@@]3(O)[C@@H]2C)[C@@H](O)C1 | < 3.70 | < 3.70
